Literature values as cited in publication PMC6318274, “Lattice engineering enables definition of molecular features allowing for potent small-molecule inhibition of HIV-1 entry” (Nature Communications, 2019).
Read-outs that look alike come from different tables or passages of the source.

Tested on: HIV-1 Env-pseudoviruses (208-strain panel)
Conditions: cited from earlier work

In the case of `COc1cnc(-n2cnc(C)n2)c2[nH]cc(C(=O)C(=O)N3CCN(C(=O)c4ccccc4)CC3)c12` [BMS-626529], the IC50 (45_01dG5, clade B, read-out: IC50) is given as 0.4 nM, the IC50 (0077.v1.c16, clade C, read-out: IC50) is given as 2 nM and the IC50 (89.6.DG, clade B, read-out: IC50) is given as 2 nM. The IC50 (96ZM651.02, clade C, read-out: IC50) was 4 nM, the IC50 (208-strain panel, read-out: Geometric mean IC50) was 15.9 nM and the IC50 (208-strain panel, read-out: Median IC50) was 9 nM. The IC50 (235-47, clade AG, read-out: IC50) was 1 nM, the IC50 (242-14, clade AG, read-out: IC50) was 23 nM and the IC50 (246-F3.C10.2, clade AC, read-out: IC50) was 200 nM. The IC50 (247-23, clade D, read-out: IC50) was 11 nM, the IC50 (0260.v5.c36, clade A, read-out: IC50) was 29 nM and the IC50 (263-8, clade AG, read-out: IC50) was 2 nM. The IC50 (269-12, clade AG, read-out: IC50) was 15100 nM, the IC50 (271-11, clade AG, read-out: IC50) was over 20000 nM and the IC50 (286.36, clade C, read-out: IC50) was 1 nM. The IC50 (288.38, clade C, read-out: IC50) was 3 nM, the IC50 (0330.v4.c3, clade A, read-out: IC50) was 98 nM and the IC50 (398-F1.F6.20, clade A, read-out: IC50) was 372 nM. For the same compound, the IC50 (426c, clade C, read-out: IC50) was 30 nM, the IC50 (0439.v5.c1, clade A, read-out: IC50) was 9 nM and the IC50 (0815.v3.c3, clade ACD, read-out: IC50) was 2 nM. The IC50 (00836-2.5, clade C, read-out: IC50) was over 20000 nM, the IC50 (0921.v2.c14, clade C, read-out: IC50) was 0.9 nM and the IC50 (928-28, clade AG, read-out: IC50) was 2080 nM. For the same compound, the IC50 (001428-2.42, clade C, read-out: IC50) was 49 nM, the IC50 (3016.v5.c45, clade D, read-out: IC50) was 0.5 nM and the IC50 (3168.v4.c10, clade C, read-out: IC50) was 1 nM. The IC50 (3301.v1.c24, clade AC, read-out: IC50) was 15 nM, the IC50 (3326.v4.c3, clade CD, read-out: IC50) was 0.3 nM and the IC50 (3337.v2.c6, clade CD, read-out: IC50) was 1 nM. For the same compound, the IC50 (3365.v2.c20, clade A, read-out: IC50) was 1920 nM, the IC50 (3415.v1.c1, clade A, read-out: IC50) was 5 nM and the IC50 (3468.v1.c12, clade AD, read-out: IC50) was 7 nM. For the same compound, the IC50 (3589.v1.c4, clade AC, read-out: IC50) was 1 nM, the IC50 (3637.v5.c3, clade C, read-out: IC50) was 1 nM and the IC50 (3718.v3.c11, clade A, read-out: IC50) was 10 nM. For the same compound, the IC50 (3817.v2.c59, clade CD, read-out: IC50) was 48 nM, the IC50 (3873.v1.c24, clade C, read-out: IC50) was 0.6 nM and the IC50 (3988.25, clade B, read-out: IC50) was 1 nM. For the same compound, the IC50 (5768.04, clade B, read-out: IC50) was 3 nM, the IC50 (6095.v1.c10, clade ACD, read-out: IC50) was 1 nM and the IC50 (6101.10, clade B, read-out: IC50) was 1 nM. The IC50 (6322.v4.c1, clade C, read-out: IC50) was 91 nM, the IC50 (6405.v4.c34, clade D, read-out: IC50) was 2470 nM and the IC50 (6471.v1.c16, clade C, read-out: IC50) was 2 nM. For the same compound, the IC50 (6535.3, clade B, read-out: IC50) was 0.3 nM, the IC50 (6540.v4.c1, clade AC, read-out: IC50) was 41 nM and the IC50 (6545.v4.c1, clade AC, read-out: IC50) was 32 nM. The IC50 (6631.v3.c10, clade C, read-out: IC50) was 3 nM, the IC50 (6644.v2.c33, clade C, read-out: IC50) was 71 nM and the IC50 (6785.v5.c14, clade C, read-out: IC50) was 292 nM. The IC50 (6838.v1.c35, clade C, read-out: IC50) was 19 nM, the IC50 (7165.18, clade B, read-out: IC50) was 29 nM and the IC50 (0013095-2.11, clade C, read-out: IC50) was 5 nM. For the same compound, the IC50 (16055-2.3, clade C, read-out: IC50) was 3 nM, the IC50 (16845-2.22, clade C, read-out: IC50) was 1 nM and the IC50 (16936-2.21, clade C, read-out: IC50) was 6 nM. The IC50 (25710-2.43, clade C, read-out: IC50) was 2 nM, the IC50 (25711-2.4, clade C, read-out: IC50) was 13 nM and the IC50 (25925-2.22, clade C, read-out: IC50) was 2 nM. The IC50 (26191-2.48, clade C, read-out: IC50) was 2 nM, the IC50 (57128.vrc15, clade D, read-out: IC50) was 6 nM and the IC50 (191821.E6.1, clade D, read-out: IC50) was 0.8 nM. The IC50 (231965.c01, clade D, read-out: IC50) was 1 nM, the IC50 (620345.c1, clade AE, read-out: IC50) was 4130 nM and the IC50 (A07412M1.vrc12, clade D, read-out: IC50) was 8 nM. For the same compound, the IC50 (AC10.29, clade B, read-out: IC50) was 3 nM, the IC50 (ADA.DG, clade B, read-out: IC50) was 3 nM and the IC50 (BB201.B42, clade A, read-out: IC50) was 242 nM. For the same compound, the IC50 (BB539.2B13, clade A, read-out: IC50) was 7 nM, the IC50 (BG1168.01, clade B, read-out: IC50) was 13 nM and the IC50 (BI369.9A, clade A, read-out: IC50) was 6 nM. For the same compound, the IC50 (BJOX002000.03.2, clade BC, read-out: IC50) was 5 nM, the IC50 (BJOX009000.02.4, clade AE, read-out: IC50) was 5130 nM and the IC50 (BJOX010000.06.2, clade AE, read-out: IC50) was over 20000 nM. The IC50 (BJOX025000.01.1, clade AE, read-out: IC50) was over 20000 nM, the IC50 (BJOX028000.10.3, clade AE, read-out: IC50) was over 20000 nM and the IC50 (BL01.DG, clade B, read-out: IC50) was over 20000 nM. The IC50 (BR07.DG, clade B, read-out: IC50) was 786 nM, the IC50 (BR025.9, clade C, read-out: IC50) was over 20000 nM and the IC50 (BS208.B1, clade A, read-out: IC50) was 17 nM. For the same compound, the IC50 (BX08.16, clade B, read-out: IC50) was 2 nM, the IC50 (BaL.26, clade B, read-out: IC50) was 0.8 nM and the IC50 (Bal.01, clade B, read-out: IC50) was 1 nM. For the same compound, the IC50 (C1080.c3, clade AE, read-out: IC50) was over 20000 nM, the IC50 (C2101.c1, clade AE, read-out: IC50) was over 20000 nM and the IC50 (C3347.c11, clade AE, read-out: IC50) was 18100 nM. The IC50 (C4118.09, clade AE, read-out: IC50) was 4040 nM, the IC50 (CAAN.A2, clade B, read-out: IC50) was 1 nM and the IC50 (CAP45.G3, clade C, read-out: IC50) was 32 nM. For the same compound, the IC50 (CAP210.E8, clade C, read-out: IC50) was 77 nM, the IC50 (CAP244.D3, clade C, read-out: IC50) was 7 nM and the IC50 (CE703010217.B6, clade C, read-out: IC50) was 2 nM. For the same compound, the IC50 (CH038.12, clade BC, read-out: IC50) was 329 nM, the IC50 (CH070.1, clade BC, read-out: IC50) was 23 nM and the IC50 (CH117.4, clade BC, read-out: IC50) was 26 nM. For the same compound, the IC50 (CH119.10, clade BC, read-out: IC50) was 4 nM, the IC50 (CH181.12, clade BC, read-out: IC50) was 1 nM and the IC50 (CM244.ec1, clade AE, read-out: IC50) was over 20000 nM. For the same compound, the IC50 (CNE3, clade AE, read-out: IC50) was 8520 nM, the IC50 (CNE4, clade B, read-out: IC50) was over 20000 nM and the IC50 (CNE5, clade AE, read-out: IC50) was 12700 nM. The IC50 (CNE7, clade BC, read-out: IC50) was 13 nM, the IC50 (CNE8, clade AE, read-out: IC50) was over 20000 nM and the IC50 (CNE10, clade B, read-out: IC50) was 0.5 nM. The IC50 (CNE12, clade B, read-out: IC50) was 1 nM, the IC50 (CNE14, clade B, read-out: IC50) was 230 nM and the IC50 (CNE15, clade BC, read-out: IC50) was 0.9 nM. For the same compound, the IC50 (CNE19, clade BC, read-out: IC50) was 2 nM.
